Like-named read-outs stand apart in the source and are kept apart here. Where no end group is shown, it is not given here.
What was measured:
Assay type in all cases: cell-based
[1] = system: LPS-stimulated mouse peritoneal macrophages
Protocol: (§1) ^aAnti-inflammatory interactions between peptide 1 and peptide 2 of AeaeCec peptides were determined by the chequerboard assay as described previously. First, 2-fold serial dilutions of peptides were prepared. Next, peptides were dissolved in PBS and added to mouse macrophages to final concentrations of 5, 2.5, 1.25, 0.625, 0.3125 µMin each well of a 96-well plate in the presence of E. coli LPS (100 ng/ml). The same volume of PBS served as a control. After incubation at 37˚Cfor 24 h, the culture supernatants of mouse macrophages were detected for the NO production (nitrite accumulation) using Griess reagent. Half maximal inhibitory concentrations (IC50) were calculated. The fractional inhibitory concentration index (FICI) was calculated for each combination using this equation: FICI = FICA+ FICB, where FICA= IC50 of peptide A in combination/IC50 of peptide A alone, and FICB= IC50 of peptide B in combination/IC50 of peptide B alone. FICI of ≤ 0.5 was interpreted as synergy, 0.5 < FICI ≤ 1.0 as additive, 1.0 < FICI ≤ 4.0 as indifferent, and FICI > 4.0 as antagonism. Data were calculated from three independent experiments and presented as mean ± SEM.
as §1, with “2” for “2 of AeaeCec peptides”, “µM in” for “µMin”, “supernatant” for “supernatants”, “assayed” for “detected”, “for” for “for the”, “≤1.0” for “≤ 1.0”

[2] = system: E. coli
Text: MIC: minimal inhibitory concentration. These concentrations represent mean values of three independent experiments performed in duplicates. CI: clinically isolated strain.

[3] = system: mouse peritoneal macrophages; test: CCK-8 cytotoxic assay; conditions: 24 h
Protocol: Cell Counting Kit-8 (CCK-8) was used to detect the cytotoxicity of AeaeCec1-5 against mammalian cells. In brief, mouse peritoneal macrophages, human PBMCs and Vero E6 cells were seeded in 96-well plates (2×10^4 cells/well, 100 μl/well). After cells adhered to culture plate, the culture medium was transferred with a two-fold dilution series of AeaeCec1-5 beginning with 50 μM (100 μl) prepared in serum-free RPMI-1640 for mouse macrophages and human PBMCs, and serum-free DMEM for Vero E6 cells. After incubation at 37 °C for 24 h, CCK-8 solution (10 μl/well) was added for an additional 4 h incubation. The absorbance at 450 nm was recorded on a microplate reader (Epoch Etock, BioTek, Vermont, USA).
Supplementary file 13071_2018_3000_MOESM2_ESM.tif: Additional file 2: Figure S1. Cytotoxicity of Ae. aegypti cecropins against mammalian cells. a Mice peritoneal macrophages, human PBMCs and Vero E6 cells were exposed to 50 μM AeaeCec1-5, respectively. b Mice peritoneal macrophages and human PBMCs were exposed to series of two-fold AeaeCec5 dilutions ranging from 3.125 to 50 μM, respectively. (TIF 161 kb)

[4] = IC50 in combination with AeaeCec1 / IC50 alone
[5] = IC50 in combination with AeaeCec2 / IC50 alone
[6] = IC50 in combination with AeaeCec3 / IC50 alone
[7] = IC50 in combination with AeaeCec5(2W→2A) / IC50 alone
[8] = IC50 in combination with AeaeCec5 / IC50 alone
[9] = IC50 in combination with AeaeCec4 / IC50 alone

| Substance | FIC [1, 4] | FIC [1, 5] | FIC [1, 6] | FIC [1, 7] | FIC [1, 8] | FIC [1, 9] | minimal inhibitory concentrations [2] | cytotoxicity ([3]; 12.5 μM) | cell death ([3]; 50 μM) | cytotoxicity ([3]; concentration below 6.25 μM) |
| --- | --- | --- | --- | --- | --- | --- | --- | --- | --- | --- |
| GGLKKLGKKLEGAGKRVFKASEKALPVVVGIKAI-NH2 [AeaeCec4] | 0.50 | 0.49 | 0.52 | 0.53 | 0.43 | – | – | – | – | – |
| GGLKKLGKKLEGAGKRVFNAAEKALPVVAGAKAL-NH2 [AeaeCec2] | 0.50 | – | 0.49 | 0.50 | 0.47 | 0.53 | – | – | – | – |
| GGLKKLGKKLEGAGKRVFNAAEKALPVVAGAKALRK [AeaeCec1] | – | 0.52 | 0.53 | 0.47 | 0.42 | 0.54 | – | – | – | – |
| GGLKKLGKKLEGVGKRVFKASEKALPVVTGYKAI-NH2 [AeaeCec3] | 0.49 | 0.52 | – | 0.51 | 0.47 | 0.50 | – | – | – | – |
| RAKFGKKLEKVGKNVFNAAKKALPVVAGYKAL-NH2 [AeaeCec5(2W→2A)] | 0.61 | 0.57 | 0.54 | – | – | 0.56 | – | – | – | – |
| RWKFGKKLEKVGKNVFNAAKKALPVVAGYKAL-NH2 [AeaeCec5] | 0.44 | 0.42 | 0.47 | – | – | 0.46 | 1.17 to 2.34 µg/mL | 9.5% | 28.9% | no cytotoxicity |
